Reference: patent US9963660B2, “Method of cleaning with enhanced bacteriostatic action using a composition of alcohol and lactate esters” (Vertec Biosolvent, Inc., priority 2015, dated 2018)

Legend:
[1] = tested on: Salmonella Choleraesuis ATCC 10708; test: MiniTox bacteriostatic (MIC) test in microtiter plates; format: cell-based; conditions: diluted to the same extent as the blend
Source text: (§1) Methods to determine minimum inhibitory concentrations (MIC) of biocides or bacteriostatic agents that work in processing liquids to inhibit biological growth have been developed and optimized (U.S. Pat. No. 5,206,151). Typically, such MIC determinations involve (a) obtaining a known volume aliquot of the contaminated aqueous system and (b) adding thereto a known amount of an oxidation reduction indicator dye, which indicator dye is capable of reacting with dehydrogenase enzymes produced by the microbiological organisms, and also (c) adding sufficient nutrients capable of accelerating microbiological organism activity, thereby forming a reaction product between reducing enzymes and the oxidation-reduction indicator dye. Multiple aliquots of the indicator dye treated and nutrient treated, aqueous system are transferred to a microtitration plate containing multiple sample wells (d), each well containing but one of the multiple aliquots. (e) Serially diluted amounts of at least one antimicrobial agent is added to at least one column (or row) of these sample wells on the titration plate, provided that a single column (or row) is treated with only one antimicrobial agent, that at least one column (or row) is left untreated to thereby form a treated titration plate. The treated titration plate is incubated at a temperature essentially equivalent to the temperature of the contaminated aqueous system from which the aliquot was originally taken and maintained for a period of time sufficient to develop the change in the indicator dye color by the reaction of the indicator dye with reducing enzymes produced by nutrient acceleration of microbiological metabolism (f). The first change in color in dye relative to the untreated column is noted (g) to determine the minimum inhibitor concentration of antimicrobial agent that inhibits growth of microbiological organism contained in the contaminated aqueous system. Such a method is optimized under the Trademark of MiniToxTM and tests are routinely practiced and results provided by microbiological testing laboratories such as: The MicroStar Lab Ltd located at 130 Erick Street in Crystal Lake, Ill. 60014. […] This solution was kept as is at room temperature and hydrolysis of the ester continued. This solution was serially diluted with broth and media components for the MiniTox tests in microtiter plates. Two bacterial cultures Salmonella Choleraesuis ATCC 10708 and Listeria Monocytogenis ATCC 19115 were used for the studies. Bacteria of the Salmonella species are known pathogens that contaminate meat and vegetable types of food and Listeria species are known to contaminate milk and related foods.

[2] = tested on: Listeria Monocytogenis ATCC 19115; test: as above; format: cell-based; conditions: diluted to the same extent as the blend
Source text: as §1

[3] = Peanut butter removal from coated metal mesh strips (cleaning/solvating action); conditions: neat solvents, 40° C., 20 minutes dip, 90 minutes drying
Source text: Peanut butter is a complex mixture of fats, carbohydrates and proteins that are emulsified in processing equipment under controlled conditions. Because of its composition that contains all the major food groups and because the product is made by controlled food processing methods, peanut butter was chosen for an initial cleaning examination. Commercially available […]® peanut butter made by Best Foods Company was used. Commercially available metal screen mesh (size 20 mesh) was cut into small (25 mm×75 mm), equal sized strips that were dipped into heated (about 50° C.) peanut butter and then drip dried in air. […] The strips were then dried under forced air at room temperature and their weights were measured periodically. After 90 minutes of drying the test results were evaluated to determine the comparative differences between the effects of the solvent compositions. Commercial grade of ethanol is typically denatured by small quantities of additives. Ethyl acetate is an approved denaturant for ethanol and it is non-toxic for food and biological related applications. In all of the examples for this invention the ethanol used was denatured by about 5% (w/w) ethyl acetate.

[4] = for Viscosity: @ 25 C.
Source text: Properties of solvents are often evaluated and expressed in measured and calculated values of solubility parameters and a few other physical constants.

Row | Structure (SMILES) | Bacteriostatic activity alone, diluted to the same extent [1] | Bacteriostatic activity alone, diluted to the same extent [2] | Percent Removal [3] | SPd (Disperse solubility parameter) [4] | SPh (hydrogen bonding parameter) [4] | SPo (Hildebrand solubility parameter) [4] | SPp (Polar solubility parameter) [4] | Surface Tension [4] | Viscosity [4]
1 | CCO [Ethanol] | does not exhibit bacteriostatic activity | does not exhibit bacteriostatic activity | 20.4% | 7.7 | 9.5 | 13.0 | 4.3 | 22.2 mN/m | 0.43 Cp
2 | CCOC(=O)C(C)O (stereo not drawn) [Ethyl lactate] | does not exhibit bacteriostatic activity | does not exhibit bacteriostatic activity | 7.3% | – | 6.1 | – | – | 28.6 mN/m | 2.41 Cp
